Results taken from the NIST ThermoML archive (doi:10.1016/j.jct.2011.10.023).
Numbers after ± are expanded uncertainties.

Details: Liquid, Vibrating tube method

CCCCCO [pentan-1-ol]
mass density [kg/m3]
Details | 278.15 K | 288.15 K | 298.15 K | 308.15 K | 318.15 K | 328.15 K | 338.15 K | 348.15 K | 358.15 K
100 kPa | 825.2 ± 2.4 | 818 ± 2.4 | 810.7 ± 2.4 | 803.3 ± 2.4 | 795.8 ± 2.4 | 788.2 ± 2.4 | 780.3 ± 2.4 | 772.3 ± 2.4 | 763.8 ± 2.4
1000 kPa | 825.8 ± 2.4 | 818.7 ± 2.4 | 811.3 ± 2.4 | 804 ± 2.4 | 796.6 ± 2.4 | 789 ± 2.4 | 781.2 ± 2.4 | 773.1 ± 2.4 | 764.8 ± 2.4
5000 kPa | 828.5 ± 2.4 | 821.5 ± 2.4 | 814.2 ± 2.4 | 807 ± 2.4 | 799.8 ± 2.4 | 792.3 ± 2.4 | 784.8 ± 2.4 | 776.9 ± 2.4 | 768.8 ± 2.4
10000 kPa | 831.6 ± 2.4 | 824.8 ± 2.4 | 817.7 ± 2.4 | 810.7 ± 2.4 | 803.6 ± 2.4 | 796.3 ± 2.4 | 788.9 ± 2.4 | 781.2 ± 2.4 | 773.5 ± 2.4
15000 kPa | 834.7 ± 2.4 | 828 ± 2.4 | 821 ± 2.4 | 814 ± 2.4 | 807.2 ± 2.4 | 800.1 ± 2.4 | 792.9 ± 2.4 | 785.5 ± 2.4 | 777.9 ± 2.4
20000 kPa | 837.6 ± 2.4 | 831.1 ± 2.4 | 824.3 ± 2.4 | 817.5 ± 2.4 | 810.7 ± 2.4 | 803.8 ± 2.4 | 796.7 ± 2.4 | 789.5 ± 2.4 | 782.1 ± 2.4
25000 kPa | 840.4 ± 2.4 | 834 ± 2.4 | 827.3 ± 2.4 | 820.7 ± 2.4 | 814 ± 2.4 | 807.2 ± 2.4 | 800.3 ± 2.4 | 793.3 ± 2.4 | 786.1 ± 2.4
30000 kPa | 843.2 ± 2.4 | 836.9 ± 2.4 | 830.3 ± 2.4 | 823.8 ± 2.4 | 817.3 ± 2.4 | 810.6 ± 2.4 | 803.8 ± 2.4 | 796.9 ± 2.4 | 789.9 ± 2.4
35000 kPa | 845.9 ± 2.4 | 839.7 ± 2.4 | 833.2 ± 2.4 | 826.8 ± 2.4 | 820.4 ± 2.4 | 813.8 ± 2.4 | 807.2 ± 2.4 | 800.4 ± 2.4 | 793.6 ± 2.4
40000 kPa | 848.6 ± 2.4 | 842.4 ± 2.4 | 836 ± 2.4 | 829.7 ± 2.4 | 823.4 ± 2.4 | 817 ± 2.4 | 810.5 ± 2.4 | 803.8 ± 2.5 | 797.1 ± 2.5
45000 kPa | 851.1 ± 2.4 | 845 ± 2.4 | 838.7 ± 2.4 | 832.5 ± 2.4 | 826.3 ± 2.5 | 820 ± 2.5 | 813.6 ± 2.5 | 807.1 ± 2.5 | 800.5 ± 2.5
50000 kPa | 853.6 ± 2.4 | 847.6 ± 2.4 | 841.4 ± 2.5 | 835.3 ± 2.5 | 829.1 ± 2.5 | 822.9 ± 2.5 | 816.6 ± 2.5 | 810.3 ± 2.5 | 803.8 ± 2.5
55000 kPa | 856.1 ± 2.5 | 850.1 ± 2.5 | 844 ± 2.5 | 838 ± 2.5 | 831.9 ± 2.5 | 825.8 ± 2.5 | 819.6 ± 2.5 | 813.3 ± 2.5 | 807 ± 2.5
60000 kPa | 858.4 ± 2.5 | 852.5 ± 2.5 | 846.4 ± 2.5 | 840.4 ± 2.5 | 834.6 ± 2.5 | 828.4 ± 2.5 | 822.5 ± 2.5 | 816.2 ± 2.5 | 810 ± 2.5

CCCCCCCO [heptan-1-ol]
mass density [kg/m3]
Details | 278.15 K | 288.15 K | 298.15 K | 308.15 K | 318.15 K | 328.15 K | 338.15 K | 348.15 K | 358.15 K
100 kPa | 832.4 ± 2.5 | 825.5 ± 2.5 | 818.5 ± 2.5 | 811.4 ± 2.5 | 804.3 ± 2.5 | 797.1 ± 2.5 | 789.7 ± 2.5 | 782.1 ± 2.5 | 774.2 ± 2.5
1000 kPa | 833 ± 2.5 | 826.1 ± 2.5 | 819.1 ± 2.5 | 812.1 ± 2.5 | 805 ± 2.5 | 797.8 ± 2.5 | 790.4 ± 2.5 | 782.9 ± 2.5 | 775.1 ± 2.5
5000 kPa | 835.4 ± 2.5 | 828.6 ± 2.5 | 821.8 ± 2.5 | 814.7 ± 2.5 | 807.9 ± 2.5 | 800.9 ± 2.5 | 793.7 ± 2.5 | 786.3 ± 2.5 | 778.7 ± 2.5
10000 kPa | 838.3 ± 2.5 | 831.7 ± 2.5 | 824.9 ± 2.5 | 818.3 ± 2.5 | 811.4 ± 2.5 | 804.6 ± 2.5 | 797.5 ± 2.5 | 790.4 ± 2.5 | 783 ± 2.5
15000 kPa | 841.2 ± 2.5 | 834.7 ± 2.5 | 828.1 ± 2.5 | 821.5 ± 2.5 | 814.8 ± 2.5 | 808.1 ± 2.5 | 801.2 ± 2.5 | 794.2 ± 2.5 | 787.1 ± 2.5
20000 kPa | 843.9 ± 2.5 | 837.6 ± 2.5 | 831.1 ± 2.5 | 824.6 ± 2.5 | 818.1 ± 2.5 | 811.5 ± 2.5 | 804.7 ± 2.5 | 797.9 ± 2.5 | 790.9 ± 2.5
25000 kPa | 846.4 ± 2.5 | 840.4 ± 2.5 | 833.9 ± 2.5 | 827.6 ± 2.5 | 821.2 ± 2.5 | 814.7 ± 2.5 | 808.1 ± 2.5 | 801.4 ± 2.5 | 794.6 ± 2.5
30000 kPa | 849.2 ± 2.5 | 843.1 ± 2.5 | 836.7 ± 2.5 | 830.5 ± 2.5 | 824.2 ± 2.5 | 817.8 ± 2.5 | 811.4 ± 2.5 | 804.8 ± 2.5 | 798.2 ± 2.5
35000 kPa | 851.7 ± 2.5 | 845.7 ± 2.5 | 839.5 ± 2.5 | 833.3 ± 2.5 | 827.1 ± 2.5 | 820.8 ± 2.5 | 814.6 ± 2.5 | 808.1 ± 2.5 | 801.5 ± 2.5
40000 kPa | 854.2 ± 2.5 | 848.2 ± 2.5 | 842.1 ± 2.5 | 836 ± 2.5 | 829.9 ± 2.5 | 823.8 ± 2.5 | 817.5 ± 2.5 | 811.3 ± 2.5 | 804.9 ± 2.5
45000 kPa | 856.6 ± 2.5 | 850.7 ± 2.5 | 844.7 ± 2.5 | 838.7 ± 2.6 | 832.7 ± 2.6 | 826.6 ± 2.6 | 820.6 ± 2.6 | 814.3 ± 2.6 | 808.1 ± 2.6
50000 kPa | 859 ± 2.6 | 853.1 ± 2.6 | 847.2 ± 2.6 | 841.3 ± 2.6 | 835.4 ± 2.6 | 829.4 ± 2.6 | 823.4 ± 2.6 | 817.3 ± 2.6 | 811.1 ± 2.6
55000 kPa | 861.3 ± 2.6 | 855.5 ± 2.6 | 849.7 ± 2.6 | 843.8 ± 2.6 | 838 ± 2.6 | 832.1 ± 2.6 | 826.2 ± 2.6 | 820.2 ± 2.6 | 814.1 ± 2.6
60000 kPa | 863.4 ± 2.6 | 857.8 ± 2.6 | 852.1 ± 2.6 | 846.1 ± 2.6 | 840.4 ± 2.6 | 834.5 ± 2.6 | 828.7 ± 2.6 | 822.8 ± 2.6 | 816.9 ± 2.6
